The term IC50 denotes the concentration needed to halve the response being measured.

We go through 54 compounds from US20210198277A1, “AMINE-SUBSTITUTED ARYL OR HETEROARYL COMPOUNDS” (Epizyme, Inc., priority 2016, published 2021).

The assay concerns the target T1, EHMT2 (Homo sapiens, UniProt Q96KQ7).
T1 construct: host or cells: MDA-MB-231
T1 sequence (Q96KQ7 1-1210): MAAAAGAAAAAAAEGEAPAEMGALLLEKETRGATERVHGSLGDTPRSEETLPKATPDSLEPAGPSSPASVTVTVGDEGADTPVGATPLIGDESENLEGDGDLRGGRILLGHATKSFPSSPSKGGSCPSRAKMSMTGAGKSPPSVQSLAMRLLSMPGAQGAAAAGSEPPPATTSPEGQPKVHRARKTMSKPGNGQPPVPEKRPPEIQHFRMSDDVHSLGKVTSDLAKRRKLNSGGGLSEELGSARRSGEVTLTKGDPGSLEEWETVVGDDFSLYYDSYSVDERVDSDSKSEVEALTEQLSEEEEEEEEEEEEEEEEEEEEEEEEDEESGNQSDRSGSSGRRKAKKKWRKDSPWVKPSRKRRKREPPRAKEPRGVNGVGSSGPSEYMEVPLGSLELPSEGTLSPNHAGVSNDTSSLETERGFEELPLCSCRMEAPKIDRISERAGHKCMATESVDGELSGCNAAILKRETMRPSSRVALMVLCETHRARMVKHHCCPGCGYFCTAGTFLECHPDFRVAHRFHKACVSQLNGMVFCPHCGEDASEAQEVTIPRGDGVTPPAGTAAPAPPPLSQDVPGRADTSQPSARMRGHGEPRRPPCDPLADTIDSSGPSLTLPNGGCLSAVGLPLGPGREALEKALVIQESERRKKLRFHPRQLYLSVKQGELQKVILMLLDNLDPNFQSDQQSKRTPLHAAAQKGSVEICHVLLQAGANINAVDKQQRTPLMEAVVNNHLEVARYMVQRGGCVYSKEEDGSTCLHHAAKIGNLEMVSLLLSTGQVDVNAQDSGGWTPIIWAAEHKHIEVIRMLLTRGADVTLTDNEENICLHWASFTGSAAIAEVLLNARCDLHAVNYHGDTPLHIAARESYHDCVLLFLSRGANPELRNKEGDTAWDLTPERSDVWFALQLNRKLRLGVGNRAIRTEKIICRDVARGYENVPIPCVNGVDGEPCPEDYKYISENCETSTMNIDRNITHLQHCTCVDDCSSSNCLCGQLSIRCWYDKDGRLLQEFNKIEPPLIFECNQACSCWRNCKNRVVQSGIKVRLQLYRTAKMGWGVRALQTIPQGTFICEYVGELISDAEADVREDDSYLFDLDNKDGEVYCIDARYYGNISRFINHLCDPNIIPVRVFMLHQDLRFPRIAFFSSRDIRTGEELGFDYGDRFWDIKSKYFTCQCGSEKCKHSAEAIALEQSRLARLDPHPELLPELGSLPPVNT
In words: MDA-MB-231 H3K9me2 in-cell Western assay (EHMT2 ICW). The assay is classed as cell-based. As to conditions: H3K9me2 in-cell Western, MDA-MB-231 cells; read-out: EHMT2 ICW (IC50 μM). In a few lines:
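For 48 h at 37 °C, breast cancer MDA-MB-231 cells were incubated with compound, then fixed and immunostained for H3K9me2, with DRAQ5 used for normalisation. Each well's signal ratio yielded percent inhibition, and IC50 values were derived by fitting a four-parameter curve.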

For the compound `CNc1ccnc(Nc2cc(OCCCN3CCCC3)c3cn[nH]c3c2)n1` [Compound 538, N^4-methyl-N^2-(4-(3-(pyrrolidin-1-yl)propoxy)-1H-indazol-6-yl)pyrimidine-2,4-diamine], the concentration for half-maximal inhibition (IC50) is greater than 10 µM.
Consider `CNc1ccnc(Nc2cc(OCCCN3CCCC3)c3[nH]ncc3c2)n1` [Compound 539], for which the IC50 is greater than 10 µM.
With `CNc1ccnc(NC2CCCNC2)n1` (stereo not drawn) [Compound 541, N^4-methyl-N^2-(piperidin-3-yl)pyrimidine-2,4-diamine] the figure was greater than 10 µM.
In the case of `CNc1ccnc(NC2CCNCC2)n1` [Compound 542, N^4-methyl-N^2-(piperidin-4-yl)pyrimidine-2,4-diamine], the IC50 is greater than 10 µM.
On to `CCCC1(Nc2nccc(NC)n2)CCCNC1` (stereo not drawn) [Compound 544], for which the IC50 is greater than 10 µM.
With `CCCC1(Nc2nccc(NC)n2)CCNCC1` [Compound 545], the IC50 was greater than 10 µM.
Take `CNc1ccnc(NC2(C)CCCNC2)n1` (stereo not drawn) [Compound 546, N^4-methyl-N^2-(3-methylpiperidin-3-yl)pyrimidine-2,4-diamine]: the concentration for half-maximal inhibition (IC50) is greater than 10 µM.
With `CNc1ccnc(NC2(C)CCNCC2)n1` [Compound 547, N^4-methyl-N^2-(4-methylpiperidin-4-yl)pyrimidine-2,4-diamine] the figure was greater than 10 µM; with `CNc1ccnc(N[C@@H]2CC[C@H](N)C2)n1` [Compound 548, N^2-((1R,3S)-3-aminocyclopentyl)-N^4-methylpyrimidine-2,4-diamine], greater than 10 µM; with `CCCCN1CCCC(C)(Nc2nccc(NC)n2)C1` (stereo not drawn) [Compound 549, N^2-(1-butyl-3-methylpiperidin-3-yl)-N^4-methylpyrimidine-2,4-diamine], greater than 10 µM.
As for `CCCCN1CCC(C)(Nc2nccc(NC)n2)CC1` [Compound 550, N^2-(1-butyl-4-methylpiperidin-4-yl)-N^4-methylpyrimidine-2,4-diamine], the figure is greater than 10 µM.
Regarding `CNc1cc(C)nc(Nc2ccc(OC)c(OCCCN(C)C3CCC3)c2)n1` [Compound 551, N^2-(3-(3-(cyclobutyl(methyl)amino)propoxy)-4-methoxyphenyl)-N^4,6-dimethylpyrimidine-2,4-diamine], the IC50 is 0.1 to 1 µM.
For the compound `c1nc(NC2CCNCC2)ncc1OCCCN1CCCC1` [Compound 552], the IC50 is greater than 10 µM.
In the case of `CN1CCC(COc2cnc(NCC3CCOCC3)nc2)C1` (stereo not drawn) [Compound 553], the IC50 was greater than 10 µM.
Turning to `CN1CCC(COc2ccc(NC3CCNCC3)nc2)C1` (stereo not drawn) [Compound 554], the IC50 is greater than 10 µM.
Consider `CN1CCC(COc2cnc(NC3CCNCC3)nc2)C1` (stereo not drawn) [Compound 555], for which the half-inhibitory concentration (IC50) is greater than 10 µM.
As for `c1nc(NC2CCNCC2)ncc1OCC1CCN(C2CC2)C1` (stereo not drawn) [Compound 556], the IC50 is greater than 10 µM.
On to `c1nc(NC2CCOCC2)ncc1OCC1CCN(C2CC2)C1` (stereo not drawn) [Compound 557], for which the IC50 was greater than 10 µM.
For `CNc1cc(C)nc(Nc2cnc(OC)c(OC[C@H]3CCN(C4CC4)C3)c2)n1` [Compound 558], the IC50 is 0.1 to 1 µM.
Consider `CNc1cc(C)nc(Nc2ccc(OC)c(OCC3CN(C(C)C)C3)c2)n1` [Compound 559], for which the IC50 fell in the range of 0.1 to 1 µM.
In the case of `CCN1CC(C(O)Oc2cc(Nc3nc(C)cc(NC)n3)ccc2OC)C1` (stereo not drawn) [Compound 560], the IC50 was 0.1 to 1 µM.
For the compound `CNc1cc(C)nc(Nc2ccc(OC)c(O)c2)n1` [Compound 561], the half-inhibitory concentration (IC50) is greater than 10 µM.
As for `CCN1CC(C(C#N)Oc2cc(Nc3nc(C)cc(NC)n3)ccc2OC)C1` (stereo not drawn) [Compound 562], the figure is 1 to 10 µM; as for `CNc1cc(C)nc(Nc2ccc(OC)c(OC[C@@H]3CCN(C4CCC4)C3)c2)n1` [Compound 563], less than 0.1 µM; as for `CCN1CC(COc2cc(Nc3nccc4[nH]ccc34)ncc2OC)C1` [Compound 564], greater than 10 µM.
Take `COc1cc(Nc2nc(C)cc3[nH]ncc23)ncc1OCCCN1CCCC1` [Compound 565]: the IC50 is 1 to 10 µM.
Turning to `CCN1CC(COc2cc(Nc3cc(NC)ncc3F)ncc2OC)C1` [Compound 566], the concentration for half-maximal inhibition (IC50) was greater than 10 µM.
With `CCN1CC(COc2cc(Nc3cc(NC)nc(C)c3F)ncc2OC)C1` [Compound 567] the figure was greater than 10 µM; with `CNc1cc(C)nc(Nc2ccc(OC)c(OC[C@@H]3CCN(C4(C)CC4)C3)c2)n1` [Compound 568], 0.1 to 1 µM; with `CCN1CC(COc2cc(Nc3cc(NC)cc(C)n3)cnc2OC)C1` [Compound 569], 0.1 to 1 µM.
For `CCN1CC[C@@H](COc2cc(Nc3nc(C)cc(NC)n3)ccc2OC)C1` [Compound 571], the IC50 lay within 0.1 to 1 µM.
As for `COc1ccc(NC2CCNCC2)cc1OCCCN1CCCC1` [Compound 572], the figure is greater than 10 µM; as for `COc1ccc(NC2CCCNC2)cc1OCCCN1CCCC1` (stereo not drawn) [Compound 573], greater than 10 µM.
Consider `CNc1cc(C)nc(Nc2ccc(OC)c(OCCCN3CC4(CC4)C3)c2)n1` [Compound 574], for which the IC50 is greater than 10 µM.
Turning to `CNc1cc(C)nc(Nc2ccc(OC)c(OCC3CN(C(C)C)C3)c2)n1` [Compound 575], the IC50 is 1 to 10 µM.
On to `CNc1cc(C)nc(Nc2ccc(OC)c(OCC3CN(C4CCC4)C3)c2)n1` [Compound 576], for which the IC50 was 0.1 to 1 µM.
In the case of `CNc1cc(C)nc(Nc2ccc(OC)c(OCC3CN(C4CCCC4)C3)c2)n1` [Compound 577], the concentration for half-maximal inhibition (IC50) was greater than 10 µM.
Regarding `COc1cc(NC2CCCNC2)ccc1OCCCN1CCCC1` (stereo not drawn) [Compound 578], the half-inhibitory concentration (IC50) was greater than 10 µM.
Regarding `COc1cc(NC2CCNCC2)ccc1OCCCN1CCCC1` [Compound 579], the IC50 was greater than 10 µM.
As for `CNc1cc(C)nc(Nc2ccc(OC)c(OCC3CN(C4CCOC4)C3)c2)n1` (stereo not drawn) [Compound 580], the figure is greater than 10 µM.
Turning to `COc1cnc(Nc2cccc3[nH]ncc23)cc1OCCCN1CCCC1` [Compound 581], the IC50 is greater than 10 µM.
Regarding `COc1ccc(Nc2nccc3[nH]ncc23)cc1OCCCN1CCCC1` [Compound 582], the IC50 was greater than 10 µM.
Take `COc1cnc(Nc2ccnc3[nH]ncc23)cc1OCCCN1CCCC1` [Compound 583]: the IC50 was greater than 10 µM.
With `CCN1CC(COc2cc(Nc3cccc4nncn34)ncc2OC)C1` [Compound 584], the half-inhibitory concentration (IC50) was greater than 10 µM.
For the compound `COc1cnc(Nc2cccc3nccn23)cc1OCCCN1CCCC1` [Compound 585], the IC50 lay in the range of 1 to 10 µM.
As for `COc1cnc(Nc2cccn3ccnc23)cc1OCCCN1CCCC1` [Compound 586], the figure is greater than 10 µM; as for `COc1cc2c(C3CCN(C)CC3)nc(N(C)C)nc2cc1OCCCN1CCCC1` [Compound 587], 0.1 to 1 µM.
With `CC(C)N1CC(COc2cnc(NC3CCNCC3)nc2)C1` [Compound 588] the figure was greater than 10 µM; with `COc1cnc(Nc2cccc3cncn23)cc1OCCCN1CCCC1` [Compound 589], greater than 10 µM.
Consider `COc1ccc(Nc2nc(C)cc(NCC3CCOCC3)n2)cc1OCCCN1CCCC1` [Compound 590], for which the IC50 fell in the range of 0.1 to 1 µM.
As to `COc1ncc(Nc2nc(C)cc(NCC3CCOCC3)n2)cc1OCCCN1CCCC1` [Compound 591], the 50% inhibitory concentration (IC50) fell in the range of 0.1 to 1 µM.
As for `COc1ncc(Nc2nc(C)cc(NCC3CCOCC3)n2)cc1OC[C@@H]1CCN(C(C)C)C1` [Compound 592], the figure is 0.1 to 1 µM.
On to `COc1ncc(Nc2nc(C)cc(NC(C)C)n2)cc1OCCCN1CCCC1` [Compound 593], for which the IC50 lay in the range of 0.1 to 1 µM.
As to `COc1ncc(Nc2nc(C)cc(NCC3CCOCC3)n2)cc1OC[C@@H]1CCN(C2CCC2)C1` [Compound 594], the IC50 fell in the range of 0.1 to 1 µM.
